Data from the CheMixHub viscosity set.

Test: xn = mol fraction of the nth substance listed

[Cl-].[Cl-].[Cl-].[Cl-].[Sn+4] + COc1ccccc1
viscosity [mPa·s], 101 kPa
Details	x2 = 0.5074	x2 = 0.6728	x2 = 0.782	x2 = 0.8238	x2 = 0.864	x2 = 0.9558
293.15 K	0.932	0.958	1.01	1.04	1.07	1.1
313.15 K	0.724	0.732	0.746	0.765	0.779	0.811

Cc1cc(C)cc(C)c1 + CS(C)=O
viscosity [mPa·s], 101.3 kPa
Details	x2 = 0.0996	x2 = 0.1961	x2 = 0.3046	x2 = 0.4024	x2 = 0.5049	x2 = 0.6057	x2 = 0.7047	x2 = 0.8055	x2 = 0.9018
298.15 K	0.699	0.772	0.865	1.018	1.168	1.28	1.367	1.508	1.711
303.15 K	0.654	0.718	0.799	0.901	1.029	1.136	1.241	1.372	1.553
308.15 K	0.616	0.674	0.747	0.831	0.935	1.036	1.135	1.266	1.42

Cc1cc(C)cc(C)c1 + C[N+](=O)[O-]
293.15 K, 101.33 kPa
Details	viscosity [mPa·s]
x2 = 0.1192	0.686
x2 = 0.2065	0.683
x2 = 0.3019	0.679
x2 = 0.3858	0.679
x2 = 0.4761	0.674
x2 = 0.6061	0.671
x2 = 0.7112	0.666
x2 = 0.7985	0.657
x2 = 0.8912	0.648

OCCCCO + C[N+](C)(C)CCO.[Cl-]
viscosity [mPa·s]
Details	293.15 K	298.15 K	298.2 K	303.15 K	308.15 K	308.2 K	313.15 K	318.15 K	318.2 K	323.15 K
101 kPa, x2 = 0.2	–	70.2	–	–	–	–	–	32.3	–	–
101.3 kPa, x1 = 0.7519	112.9	87.4	–	70.16	59.73	–	47.89	39.53	–	33.04
101.3 kPa, x1 = 0.8	99.69	78.77	–	62.96	51.08	–	41.67	34.51	–	28.9
101.3 kPa, x1 = 0.8334	93.6	74.9	–	59.28	48	–	39.41	32.5	–	27.36
101.3 kPa, x1 = 0.8575	91.44	72.28	–	57.86	46.72	–	38.31	31.67	–	26.47
101.3 kPa, x2 = 0.1672	–	–	75.5	–	–	58.2	–	–	42.8	–
101.3 kPa, x2 = 0.2	–	–	–	54.75	44.49	–	36.66	30.4	–	25.74
101.3 kPa, x2 = 0.25	–	–	–	60.64	49.3	–	40.55	33.94	–	28.53
